Laboratory results reported in patent US6716858B1, “Methods for inhibiting diabetic complications” (Kansas University Medical Center, priority 1995, dated 2004).

Experiment: Metabolic conversions and bioavailability of pyridoxamine, plasma B6 vitamers by HPLC
Assay type: in vivo, rat
Settings: 25 mg/kg/day pyridoxamine in drinking water, after 48 hours; n=4
Experimental: In addition to the glycated albumin studies, we carried out an investigation of the bioavailability of pyridoxamine when introduced through drinking water, and its possible redistribution into the vitamin B6 pool. Determination of the common B6 vitamers in plasma was carried out by HPLC methods as described below. Rats (n=4) were kept in standard cages as in the other experiments and were given pyridoxamine at 25 mg/kg/day for 48 hours, following which blood samples were withdrawn intra-cardially for serum analysis of the B6 vitamers. The concentrations were compared to endogenous B6 vitamer levels of control rats.
The procedures of Sampson and O° Connor (Nutrition Res. 9:259-272 (1989)) and Sharma and Dakshinamurti (Sampson and O° Connor J Nutr 119:1940-8, (1989) Sharma and Dakshinamurti, J Chromatogr 578:45-51, (1992)) were followed, using a Shimadzu HPLC with RF-551 fluorescence monitor. Excitation was at 328 nm and emission was followed at 393 nm. An Ultremex C18 guard column (30×4.6 mm, 5 micron particle size) (Phenomenex) preceded an Ultremex C18 ion-pair column (octadecylsilane, 150×4.6 mm, 3 micron particle size) (Phenomenex). Solvent A contained 0.033 M phosphoric acid and 0.008 M 1-octanesulfonic acid, adjusted to pH 2.2 with 6 N KOH. Solvent B contained 0.033 M phsophoric acid and 10% (v/v) 2-propanol, adjusted to pH 7.5 with 6 N KOH. […]

elevation of plasma pyridoxamine, steady state to endogenous level: approximately 300 fold
Compound: Cc1ncc(CO)c(CN)c1O [pyridoxamine]
